The values below come from ChEMBL document CHEMBL4814073, “Ring-opening of five-membered heterocycles conjugated 4-isopropylresorcinol scaffold-based benzamides as HSP90 inhibitors suppressing tumor growth in vitro and in vivo” (Eur J Med Chem, 2021).

Active and inactive are the calls of the source.

Series [1] can be described thus: AUC (0 to t) in Sprague-Dawley rat at 20 mg/kg, po measured after 1 hrs by LC-MS/MS analysis. Particulars: in vivo. Format: ADME, organism-based. The arrangement: route oral, time 1 hrs, dose 20 mg/kg.
Series [2] can be described thus: Clearance in Sprague-Dawley rat at 2 mg/kg, iv measured after 1 hrs by LC-MS/MS analysis. It is filed as ADME, organism-based. The following applies: in vivo.
In series [3] the test system is A549. The experiment in a line: Induction of EGFR degradation in human A549 cells assessed as reduction in eGFR expression measured after 24 hrs by immunoblot analysis. Format: functional, cell-based. Particulars: dose microM <=3, time 24.0 hrs. On the technique in general: In western blotting, separated proteins are transferred to a membrane and probed.
Series [4] deals with T1, CYP1A2 (Homo sapiens, UniProt P05177).
T1 sequence (P05177 whole entry): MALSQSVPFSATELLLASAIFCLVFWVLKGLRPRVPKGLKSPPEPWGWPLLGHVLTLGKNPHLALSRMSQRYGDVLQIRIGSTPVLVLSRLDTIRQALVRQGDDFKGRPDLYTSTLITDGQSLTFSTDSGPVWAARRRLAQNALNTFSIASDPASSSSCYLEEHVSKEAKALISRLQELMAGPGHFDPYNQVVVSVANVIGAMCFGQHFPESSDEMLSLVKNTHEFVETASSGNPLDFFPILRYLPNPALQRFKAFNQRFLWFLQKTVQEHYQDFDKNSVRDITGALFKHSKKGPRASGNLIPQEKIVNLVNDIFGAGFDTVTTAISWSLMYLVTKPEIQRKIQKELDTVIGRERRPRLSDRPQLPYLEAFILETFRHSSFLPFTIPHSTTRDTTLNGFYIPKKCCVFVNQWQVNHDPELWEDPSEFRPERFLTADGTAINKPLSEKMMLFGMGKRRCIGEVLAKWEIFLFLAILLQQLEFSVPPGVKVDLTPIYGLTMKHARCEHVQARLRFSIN
Put plainly: Inhibition of CYP1A2 in human liver microsomes using phenacetin as substrate at 50 uM by LC-MS/MS analysis. Format: ADME. The following applies: probe phenacetin. On the technique in general: Liver microsomes are vesicles of endoplasmic reticulum, rich in cytochrome P450 enzymes.

The subject of series [5] is A549. Put plainly: Induction of apoptosis in human A549 cells assessed as increase in PARP cleavage at 0.3 to 3 uM measured after 18 hrs by western blot analysis. The following applies: dose 0.3-3 µM. Format: functional, cell-based.
Series [6] is described as follows: Tmax in Sprague-Dawley rat at 2 mg/kg, iv measured after 1 hrs by LC-MS/MS analysis. It is filed as ADME, organism-based. Particulars: in vivo.
In series [7] the test system is NCI-H1975. The experiment in a line: Antiproliferative activity against human NCI-H1975 cells harbouring EGFR L858R/T790M mutant measured after 48 hrs by SRB assay. Particulars: NCI-H1975, 48 h.
Series [8] deals with T2, Heat shock protein HSP90 (Homo sapiens, UniProt P07900+P08238). The experiment in a line: Inhibition of HSP90 in human A549 cells assessed as downregulation of Src expression at 0.3 uM by immunoblot analysis. The following applies: time hrs <=24, TDE = time-dependent effect.
In series [9] the target is T3, CYP2C8 (Homo sapiens, UniProt P10632).
T3 sequence (P10632 whole entry): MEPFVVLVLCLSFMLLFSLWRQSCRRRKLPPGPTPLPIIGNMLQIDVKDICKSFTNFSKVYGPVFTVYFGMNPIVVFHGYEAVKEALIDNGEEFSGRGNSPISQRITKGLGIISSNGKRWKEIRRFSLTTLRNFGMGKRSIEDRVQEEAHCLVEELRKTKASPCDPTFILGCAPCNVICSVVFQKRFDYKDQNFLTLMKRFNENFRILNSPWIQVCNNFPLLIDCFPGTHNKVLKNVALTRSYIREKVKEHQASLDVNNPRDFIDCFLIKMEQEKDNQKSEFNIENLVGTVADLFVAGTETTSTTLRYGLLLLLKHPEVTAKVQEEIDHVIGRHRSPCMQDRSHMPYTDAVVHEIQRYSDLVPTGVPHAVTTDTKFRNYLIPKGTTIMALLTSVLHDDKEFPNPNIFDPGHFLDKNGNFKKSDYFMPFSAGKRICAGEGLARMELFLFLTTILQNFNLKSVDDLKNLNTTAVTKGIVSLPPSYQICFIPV
Put plainly: Inhibition of CYP2C8 in human liver microsomes using amodiaquine as substrate at 50 uM by LC-MS/MS analysis. It is filed as ADME. The following applies: probe amodiaquine.

Series [10] deals with A549. Put plainly: Antitumor activity against human A549 cells xenografted in BALB/c mouse assessed as tumor growth delay at 50 mg/kg, po treated daily relative to control.
Series [11] has as its target CYP2D6 (Homo sapiens, UniProt P10635). Put plainly: Inhibition of CYP2D6 in human liver microsomes using dextromethorphan as substrate at 50 uM by LC-MS/MS analysis. It is filed as ADME. The following applies: probe dextromethorphan.
Series [12] deals with T4, Cytochrome P450 2B6 (Homo sapiens, UniProt P20813).
T4 sequence (P20813 whole entry): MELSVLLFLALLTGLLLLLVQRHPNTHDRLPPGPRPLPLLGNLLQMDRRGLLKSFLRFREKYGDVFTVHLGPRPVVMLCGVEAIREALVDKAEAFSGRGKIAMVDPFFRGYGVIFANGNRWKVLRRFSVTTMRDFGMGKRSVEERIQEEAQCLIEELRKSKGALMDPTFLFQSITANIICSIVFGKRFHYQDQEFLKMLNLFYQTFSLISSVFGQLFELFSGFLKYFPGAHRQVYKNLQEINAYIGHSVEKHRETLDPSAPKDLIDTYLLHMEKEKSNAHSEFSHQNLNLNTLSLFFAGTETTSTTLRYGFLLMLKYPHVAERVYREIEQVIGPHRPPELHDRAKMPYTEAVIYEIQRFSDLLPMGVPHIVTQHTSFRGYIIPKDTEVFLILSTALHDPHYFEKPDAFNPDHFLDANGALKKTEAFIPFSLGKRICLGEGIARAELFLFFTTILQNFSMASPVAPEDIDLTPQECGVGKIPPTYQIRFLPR
The experiment in a line: Inhibition of CYP2B6 in human liver microsomes using bupropion as substrate by LC-MS/MS analysis. It is filed as ADME.

Series [13] can be described thus: AUC (0 to infinity) in Sprague-Dawley rat at 20 mg/kg, po measured after 1 hrs by LC-MS/MS analysis. Format: ADME, organism-based. The arrangement: route oral, time 1 hrs, dose 20 mg/kg. Particulars: in vivo.
A short description of series [14]: Metabolic stability in Beagle dog hepatocytes assessed as half life by LC-MS/MS analysis. It is filed as ADME, cell-based, Canis lupus familiaris, Hepatocyte.
A short description of series [15]: Hepatic clearance in human hepatocytes by LC-MS/MS analysis.
Series [16] concerns A549. The experiment in a line: Inhibition of MAPK signaling pathway in human A549 cells at 3 uM incubated for 24 hrs by immunoblot analysis. Format: cell-based.
Series [17] addresses T2, Heat shock protein HSP90. Put plainly: Inhibition of HSP90 in human A549 cells assessed as downregulation of Akt expression at 3 uM by immunoblot analysis. Particulars: time hrs <=24, TDE = time-dependent effect. It is filed as cell-based.
Series [18] in a line: Volume of distribution at steady state in Sprague-Dawley rat at 2 mg/kg, iv measured after 1 hrs by LC-MS/MS analysis. Format: ADME, organism-based. Particulars: in vivo, read-out: Vdss.
Series [19] concerns A549. Put plainly: Induction of apoptosis in human A549 cells assessed as increase in cleaved caspase 6 protein expression at 0.3 to 3 uM measured after 18 hrs by western blot analysis. It is filed as functional, cell-based. The following applies: dose 0.3-3 µM.
The target in series [20] is T2, Heat shock protein HSP90. The experiment in a line: Inhibition of HSP90 in human A549 cells assessed as downregulation of Src expression incubated for 24 hrs by immunoblot analysis. Format: cell-based. The following applies: dose microM <=3, time 24.0 hrs.

CYP2D6, sequence (P10635 whole entry): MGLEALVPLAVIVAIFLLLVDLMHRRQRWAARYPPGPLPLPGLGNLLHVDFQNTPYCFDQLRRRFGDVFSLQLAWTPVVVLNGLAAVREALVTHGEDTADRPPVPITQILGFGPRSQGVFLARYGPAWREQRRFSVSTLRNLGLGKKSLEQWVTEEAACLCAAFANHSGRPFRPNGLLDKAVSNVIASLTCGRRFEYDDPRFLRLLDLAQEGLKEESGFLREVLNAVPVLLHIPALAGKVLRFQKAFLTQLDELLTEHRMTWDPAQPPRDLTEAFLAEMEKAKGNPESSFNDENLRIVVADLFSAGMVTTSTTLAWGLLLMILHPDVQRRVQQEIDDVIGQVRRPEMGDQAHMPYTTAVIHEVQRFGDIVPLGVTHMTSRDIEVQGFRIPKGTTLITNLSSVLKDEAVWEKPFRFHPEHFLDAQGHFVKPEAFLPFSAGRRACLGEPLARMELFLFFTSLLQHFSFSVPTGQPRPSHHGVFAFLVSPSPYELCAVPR

Turning to `CCN(C(=O)c1cc(C(C)C)c(O)cc1O)c1cccnc1`, in [1], the AUCt is 737 ng·h/mL. The compound further showed a clearance in [2] of 73.2 mL/min/kg. In addition, the Activity result in series [3] was “Dose-Dependent Effect”; in series [10] it was 72%. Moreover, the values for the inhibition at 50 µM in series [4], in series [9] and in [11] were 50.6%, 54.3% and 84%, respectively. Besides, the outcome in series [5] and in series [19] was Active. In addition, the Tmax in [6] is 1.8 min. In addition, the GI50 in series [7] came out at 0.05 µM. Also, the inhibition result was “Tde” in series [8], “Dose-Dependent Effect” in series [16], “Tde” in [17] and “Dose-Dependent Effect” in series [20]. Further, in series [12], the IC50 stood at 37.2 µM. The same compound gave an AUC in [13] of 811 ng·h/mL. In addition, the half-life in series [14] is 39.2 min. For the same compound, the CLhep predicted in [15] was 14.7 mL/min/kg. In series [18], the Vd is 4.59 L/kg.

For orientation: clearance means the volume of plasma or blood freed of the substance per unit of time. In general, inhibition refers to the share of the control response that was lost under treatment. The Tmax is the time from dosing to the highest level. By GI50 is commonly meant the concentration that inhibits growth by half. Higher therefore signals less potent growth inhibition. As usually defined, the IC50 is the concentration that gives 50% inhibition. As a reminder, the AUC is the area under the concentration-time curve, a measure of exposure. For orientation: half-life means the time needed for the level to fall by half in the phase considered.
